We go through 1 molecule from PMC5615911 (Toxicology Reports, 2016).

As usually defined, the IC50 is the midpoint of a concentration-inhibition curve. One may read the inhibition as how much of the control response was suppressed.

The nature of data set [1]: In vitro metabolism, human liver microsomes. Particulars: 60 min, 10 μM S3643, relative to S3643 peak area at time 0. The data set is classed as in vitro ADME.
Data set [2] deals with human umami receptor. To be noted: cited from earlier work.
Data set [3] concerns S. typhimurium strains TA98, TA100, TA1535, TA1537. As to the kind of experiment: Bacterial reverse mutation test. The data set is classed as cell-based.
Data set [4] has as its target T1, CYP1A2 (Homo sapiens, UniProt P05177).
T1 sequence (P05177 1-516): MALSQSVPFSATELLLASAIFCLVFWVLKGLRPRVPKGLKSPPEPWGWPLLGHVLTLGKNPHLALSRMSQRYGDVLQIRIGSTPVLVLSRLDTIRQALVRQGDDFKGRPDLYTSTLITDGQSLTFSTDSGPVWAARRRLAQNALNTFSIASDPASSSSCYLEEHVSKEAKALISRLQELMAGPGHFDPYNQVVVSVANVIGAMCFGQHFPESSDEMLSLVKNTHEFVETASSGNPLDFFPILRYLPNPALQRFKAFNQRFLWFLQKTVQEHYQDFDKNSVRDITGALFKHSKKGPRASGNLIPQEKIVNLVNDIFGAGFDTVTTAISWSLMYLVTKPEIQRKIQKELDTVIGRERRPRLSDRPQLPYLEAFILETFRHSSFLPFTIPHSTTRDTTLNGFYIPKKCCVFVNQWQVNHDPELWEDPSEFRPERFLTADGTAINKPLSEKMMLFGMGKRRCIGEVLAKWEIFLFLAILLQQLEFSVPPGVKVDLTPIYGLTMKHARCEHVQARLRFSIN
Kind of data set: CYP inhibition, LC–MS/MS assay in human liver microsomes.

Each structure is given as a SMILES string.

On to `COc1cccc(-c2n[nH]c(SCc3ccccn3)n2)c1OC` [S3643, 2-(((3-(2,3-dimethoxyphenyl)-1H-1,2,4-triazol-5-yl)thio)methyl)pyridine], for which the “% MS Peak Area, Human” value in data set [1] stood at 54.9%. For the same molecule, in data set [2], the “Concentration lower than MSG for equivalent umami flavour effect” value is given as 1000 fold. Moreover, the “Reverse mutation (in vitro), result” value in data set [3] (63–1000 μg/plate, preincubation, +S9) is listed as “Negative”; in data set [3] (130–2000 μg/plate, plate incorporation, ±S9), “Negative”; in data set [3] (130–2000 μg/plate, preincubation, −S9) it was “Negative”. For the same molecule, the “Mutagenicity, conclusion” value in data set [3] (absence and presence of metabolic activation) is “not mutagenic”. Further, in data set [4], the IC50 is greater than 10 µM. In data set [4] (human, human liver microsomes, probe phenacetin), the inhibition at 10 µM was 43%.
